Results from ChEMBL document CHEMBL1201862, “PubChem BioAssay data set” (2004).
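48-hour exposure; five concentrations; linearly interpolated endpoints. GI50 = concentration required for 50% inhibition of growth.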 The source made the active and inactive calls. No stated cut-off is given here; in the data, active = GI50 up to about 1.1 µM and inactive = higher.

How the values were obtained:
Test in all cases: growth of human tumour cells (NCI), 48 h
CCRF-CEM = test system: CCRF-CEM
EKVX = test system: EKVX
SK-MEL-28 = test system: SK-MEL-28
SNB-19 = test system: SNB-19
NCI/ADR-RES = test system: NCI/ADR-RES
Malme-3M = test system: Malme-3M
NCI-H522 = test system: NCI-H522
OVCAR-8 = test system: OVCAR-8
SK-OV-3 = test system: SK-OV-3
OVCAR-5 = test system: OVCAR-5
SF-268 = test system: SF-268
U-251 = test system: U-251
A549 = test system: A549
T47D = test system: T47D
NCI-H226 = test system: NCI-H226
MOLT-4 = test system: MOLT-4
SF-539 = test system: SF-539
HCT-15 = test system: HCT-15
HL-60 = test system: HL-60

SMILES | GI50 (CCRF-CEM) | GI50 (EKVX) | GI50 (SK-MEL-28) | GI50 (SNB-19) | GI50 (NCI/ADR-RES) | GI50 (Malme-3M) | GI50 (NCI-H522) | GI50 (OVCAR-8) | GI50 (SK-OV-3) | GI50 (OVCAR-5) | GI50 (SF-268) | GI50 (U-251) | GI50 (A549) | GI50 (T47D) | GI50 (NCI-H226) | GI50 (MOLT-4) | GI50 (SF-539) | GI50 (HCT-15) | GI50 (HL-60)
O=C(N1CCOCC1)C1(c2ccccc2)CCNCC1 | 0.0488 µM (active) | > 100 µM (inactive) | > 100 µM (inactive) | > 100 µM (inactive) | > 100 µM (inactive) | > 100 µM (inactive) | > 100 µM (inactive) | > 100 µM (inactive) | > 100 µM (inactive) | > 100 µM (inactive) | > 100 µM (inactive) | > 100 µM (inactive) | > 100 µM (inactive) | > 100 µM (inactive) | > 100 µM (inactive) | > 100 µM (inactive) | > 100 µM (inactive) | > 100 µM | 
O=C1c2cc(Cl)ccc2-n2cnnc2C2CSCN12 (configuration not stated) | > 100 µM (inactive) | > 100 µM (inactive) | > 100 µM (inactive) | > 100 µM (inactive) | > 100 µM (inactive) | > 100 µM (inactive) | > 100 µM (inactive) | > 100 µM (inactive) | > 100 µM (inactive) | > 100 µM (inactive) | > 100 µM (inactive) | > 100 µM (inactive) | > 100 µM (inactive) | > 100 µM (inactive) | > 100 µM (inactive) | > 100 µM (inactive) |  | > 100 µM | 
CCSc1nn(-c2c3ccccc3nc3ccccc23)c(=S)s1 | > 100 µM (inactive) | > 100 µM (inactive) | > 100 µM (inactive) | > 100 µM (inactive) | > 100 µM (inactive) |  | > 100 µM (inactive) | > 100 µM (inactive) | > 100 µM (inactive) | > 100 µM (inactive) | > 100 µM (inactive) | > 100 µM (inactive) | > 100 µM (inactive) | > 100 µM (inactive) | > 100 µM (inactive) | > 100 µM (inactive) | > 100 µM (inactive) | > 100 µM | > 100 µM (inactive)
COc1ccc(CCCCl)c(C2=NCCc3cc(OC)c(OC)cc32)c1 | 92.5 µM (inactive) | 53.6 µM (inactive) | 63.2 µM (inactive) | 30 µM (inactive) | 46.8 µM (inactive) |  | 28.8 µM (inactive) | 25.6 µM (inactive) | > 100 µM (inactive) | > 100 µM (inactive) | 49.3 µM (inactive) | 23.6 µM (inactive) | 69.7 µM (inactive) | 46.1 µM (inactive) | 27.9 µM (inactive) | 41.6 µM (inactive) | 79.3 µM (inactive) | 71.1 µM | 27.5 µM (inactive)
COc1cccc(-n2c(N)c(-c3nc4cc(C(F)(F)F)ccc4s3)c3ccc([N+](=O)[O-])cc3c2=O)c1 |  | > 100 µM (inactive) | > 100 µM (inactive) | > 100 µM (inactive) | > 100 µM (inactive) | > 100 µM (inactive) | > 100 µM (inactive) |  | > 100 µM (inactive) | > 100 µM (inactive) | > 100 µM (inactive) | > 100 µM (inactive) | > 100 µM (inactive) | > 100 µM (inactive) | > 100 µM (inactive) | > 100 µM (inactive) |  | > 100 µM | 
CC(Nc1cc(=O)n(C)c(=O)[nH]1)c1ccccc1 (configuration not stated) | > 100 µM (inactive) | > 100 µM (inactive) | > 100 µM (inactive) | > 100 µM (inactive) | > 100 µM (inactive) |  | > 100 µM (inactive) | > 100 µM (inactive) |  | > 100 µM (inactive) | > 100 µM (inactive) | > 100 µM (inactive) | > 100 µM (inactive) | > 100 µM (inactive) |  | > 100 µM (inactive) | > 100 µM (inactive) | > 100 µM | > 100 µM (inactive)
NS(=O)(=O)c1ccc(NC(=S)N/C=C2\C(=O)Oc3ccccc3C2=O)cc1 | 37.9 µM (inactive) | 34.1 µM (inactive) |  | 19 µM (inactive) | 31.4 µM (inactive) |  | 23.2 µM (inactive) | 16.2 µM (inactive) | 26.4 µM (inactive) | 54.5 µM (inactive) | 38.5 µM (inactive) | 36.2 µM (inactive) | 43 µM (inactive) | 41.9 µM (inactive) | 12.6 µM (inactive) | 53 µM (inactive) | 44 µM (inactive) | 39.2 µM | 21.4 µM (inactive)
N#CCc1n[nH]c2nc(SCc3ccccc3)nc(N3CCCCC3)c12 | 17.3 µM (inactive) | 20.5 µM (inactive) | 20.5 µM (inactive) | 18.9 µM (inactive) | 17.6 µM (inactive) | 24.5 µM (inactive) | 19.3 µM (inactive) | 38.9 µM (inactive) | 26.4 µM (inactive) | 20.2 µM (inactive) | 19.2 µM (inactive) | 18.7 µM (inactive) | 19.3 µM (inactive) | 19.5 µM (inactive) |  | 20.6 µM (inactive) | 21.4 µM (inactive) | 32.7 µM | 25.8 µM (inactive)
